Legend:
Human T lymphocytes [1] = assay: Stimulation of lymphokine production in vitro: TCGF (IL-2) activity of supernatants; type: cell-based
Procedure: (§1) Human T lymphocytes have been incubated with PHA and with or without the peptides under examination for 24 hours (in the case of IL-2) or 72 hours (in the case of BCGF).
(§2) The supernatants have been collected, filtered (0.2 μm) and assayed for the presence of IL-2 or BCGF activity, by adding them at different concentrations to fresh T lymphocytes or to long term cultured B cells. The proliferating activity of these cells, dependent on the presence of the respective growth factor, has been evaluated through 3H-thymidine incorporation.

[2] = Toxicological trials: LD50 in mice; settings: mouse, in vivo, ip; i.p. in mice
Human T lymphocytes [3] = assay: Stimulation of lymphokine production in vitro: BCGF activity of supernatants; type: cell-based
Procedure: as §1, §2

[4] = system: PHA-stimulated human T lymphocytes; assay: DNA synthesis in PHA-stimulated human T lymphocytes in vitro (3H-thymidine); type: cell-based; settings: for DNA synthesis, 3H-thymidine c.p.m. (mean): control 22642
Procedure: Human T lymphocytes, incubated in vitro for 72 hours in presence of 0.5% PHA and different concentrations of the tripeptides under examination, have been analyzed for DNA synthesis (cell proliferation) by means of 3H-thymidine labelling.

N=C(N)NCCC[C@H](N)C(=O)NCC(=O)N[C@@H](CC(=O)O)C(=O)O [ARG--GLY--ASP, L-Arginyl-glycyl-L-aspartic acid]
TCGF activity Δ % (Human T lymphocytes [1]; 3.125% of supernatant): +107% | TCGF ACTIVITY (mean) (Human T lymphocytes [1]; 3.125% of supernatant, T + PHA 1564): 3245 COUNTS PER MINUTE | TCGF activity Δ % (Human T lymphocytes [1]; 6.25% of supernatant): +224% | TCGF ACTIVITY (mean) (Human T lymphocytes [1]; 6.25% of supernatant, T + PHA 2622): 8496 COUNTS PER MINUTE | TCGF activity Δ % (Human T lymphocytes [1]; 12.5% of supernatant): +227% | TCGF ACTIVITY (mean) (Human T lymphocytes [1]; 12.5% of supernatant, T + PHA 4012): 13113 COUNTS PER MINUTE | TCGF activity Δ % (Human T lymphocytes [1]; 25% of supernatant): +105% | TCGF ACTIVITY (mean) (Human T lymphocytes [1]; 25% of supernatant, T + PHA 7824): 16609 COUNTS PER MINUTE | TCGF activity Δ % (Human T lymphocytes [1]; 50% of supernatant): +29% | TCGF ACTIVITY (mean) (Human T lymphocytes [1]; 50% of supernatant, T + PHA 14086): 18167 COUNTS PER MINUTE | LD50 [2]: > 1000 mg/kg | BCGF activity Δ % (Human T lymphocytes [3]; 3.125% of supernatant): +257% | BCGF ACTIVITY (mean) (Human T lymphocytes [3]; 3.125% of supernatant, T + PHA 1345): 4800 COUNTS PER MINUTE | BCGF activity Δ % (Human T lymphocytes [3]; 6.25% of supernatant): +299% | BCGF ACTIVITY (mean) (Human T lymphocytes [3]; 6.25% of supernatant, T + PHA 2156): 8611 COUNTS PER MINUTE | BCGF activity Δ % (Human T lymphocytes [3]; 12.5% of supernatant): +206% | BCGF ACTIVITY (mean) (Human T lymphocytes [3]; 12.5% of supernatant, T + PHA 5402): 16550 COUNTS PER MINUTE | BCGF activity Δ % (Human T lymphocytes [3]; 25% of supernatant): +24% | BCGF ACTIVITY (mean) (Human T lymphocytes [3]; 25% of supernatant, T + PHA 15030): 18645 COUNTS PER MINUTE | BCGF activity Δ % (Human T lymphocytes [3]; 50% of supernatant): +19% | BCGF ACTIVITY (mean) (Human T lymphocytes [3]; 50% of supernatant, T + PHA 17297): 20508 COUNTS PER MINUTE | stimulation of the growth factor production (Human T lymphocytes [3]; IL-2 and BCGF, slightly lower than Arg-Lys-Glu, higher than Arg-Lys-Asp): marked effect of stimulation | PHA-induced human T lymphocyte proliferation (DNA synthesis) ([4]; 72 hours, 0.5% PHA): able to increase | DNA synthesis Δ % ([4]; peptide 0.0001 mcg/ml): -3% | DNA synthesis, 3H-thymidine c.p.m. (mean) ([4]; peptide 0.0001 mcg/ml, 72 hours, 0.5% PHA): 22002 c.p.m. | DNA synthesis Δ % ([4]; peptide 0.001 mcg/ml): +4% | DNA synthesis, 3H-thymidine c.p.m. (mean) ([4]; peptide 0.001 mcg/ml, 72 hours, 0.5% PHA): 23519 c.p.m. | DNA synthesis Δ % ([4]; peptide 0.01 mcg/ml): +6% | DNA synthesis, 3H-thymidine c.p.m. (mean) ([4]; peptide 0.01 mcg/ml, 72 hours, 0.5% PHA): 24034 c.p.m. | DNA synthesis Δ % ([4]; peptide 0.1 mcg/ml): +17% | DNA synthesis, 3H-thymidine c.p.m. (mean) ([4]; peptide 0.1 mcg/ml, 72 hours, 0.5% PHA): 25814 c.p.m. | DNA synthesis Δ % ([4]; peptide 1 mcg/ml): +11% | DNA synthesis, 3H-thymidine c.p.m. (mean) ([4]; peptide 1 mcg/ml, 72 hours, 0.5% PHA): 25163 c.p.m. | DNA synthesis Δ % ([4]; peptide 10 mcg/ml): +6% | DNA synthesis, 3H-thymidine c.p.m. (mean) ([4]; peptide 10 mcg/ml, 72 hours, 0.5% PHA): 24111 c.p.m.
